SMILES strings stand for the structures.

Assay [1] has as its system Primary bovine lens epithelial cells. The experiment in a line: Wound edge migration, multi-layering and EMT hallmarks of primary lens epithelial cells on the lens capsule. The format is cell-based. On the procedure: We tested CA4P as a potential inhibitor of lens epithelial cells epithelial-mesenchymal transition (EMT) during posterior capsular opacification (PCO), a common complication of cataract surgery. […] This effect persisted up to 48 h after CA4P exposure. Lens epithelial cell proliferation was also affected, as assayed by Ki67 immunofluorescence, MTT-based cell viability assays and cell cycle analysis by flow cytometry. Hallmarks of EMT, namely loss of cell polarity and migratory behavior, were also investigated in primary bovine lens epithelial cells grown on the lens capsule and were decreased by CA4P exposure, although cell multilayering seemed unaffected.
(FIG. 5). In addition, primary bovine lens epithelial cells grown on the lens capsule in serum-free conditions for 48 h move away from the wound edge.

The next assay concerns BIE cells. The experiment in a line: MTT-based viable cell number assay in BIE cells. The arrangement: species or system bovine. The following applies: single 30 min treatment with 1 μM CA4P; over 72 h following treatment (FIG. 6). Here is the method: BMI-immortalized bovine lens epithelial cells (BIE cell line, produced in Roy Quinlan's Laboratory, University of Durham, UK), were seeded onto 12-well tissue culture plates in 10% fetal calf serum (FCS)-supplemented tissue culture medium (Sigma-Aldrich, UK) and kept at 37° C., 5% CO2 overnight. […] Viable cell number was assayed immediately and at 24 h, 48 h and 72 h after the end of exposure, using an MTT-based colorimetric assay (CellTiter95® Aqueous non-radioactive cell proliferation assay, Promega, UK), according to manufacturer's instructions. Briefly, the original cell culture medium was discarded from all wells and replaced by 500 µL of fresh medium, to which was added 100 µL of kit reagent. The wells were then returned to 37° C., 5% CO2 for 2 h 30 in the dark, after which […] were transferred from each well into a 96-well plate, which was read at 492 nm absorbance on an Anthos Lucy I (Anthos Labtech Instruments, Germany). The absorbance values were converted to cell numbers using standard curves specific to lens epithelial cells (determined in Roy Quinlan's laboratory, University of Durham, UK), and the viable cell numbers obtained were averaged with standard deviation. Significant differences in the values obtained between control and treated cells at different timepoints were assessed using an independent, two-tailed t-test.

The next assay has as its system ERK 1/2 (p42 and p44). The experiment in a line: Erk 1/2 phosphorylation immunoblot in primary lens epithelial cells. The format is cell-based, bovine. The conditions noted are these: primary cells after dissection; 30 min 1 mM CA4P; immediately and 1 h after end of exposure (FIG. 7). An excerpt: Bovine eyes were obtained from Coast and County Meat Group (Felling, UK) on the day of culling and lenses were dissected out of the eyes under a sterile tissue culture hood as described below. After generous dousing in 70% ethanol, eyes were cut open using a major surgical blade (Swann-Morton, UK) via a single cut, parallel and posterior to the cornea-conjunctiva limit. The eye was then inverted and the vitreous removed. The lens was freed from the ciliary fibers and immediately placed anterior face down in a SYLGARD-covered (Dow Corning, Germany) well of a 12-well tissue culture plate (Greiner Bio-One, UK). The posterior side of the lens capsule was cut in a Y-shape fashion by a thin scalpel and the resulting flaps pulled back and pinned onto the SYLGARD. […]
Immediately after dissection, primary lens epithelial cells were exposed for 30 min to 1 mM CA4P diluted in 0% FCS medium, after which they were returned to 0% FCS-supplemented medium. […] After total protein quantification of the extracts by Bicinchoninic Acid (BCA) assay (ThermoScientific, UK), 20 μg of extract were loaded per lane of a 12% acrylamide denaturing gel, which was run at 200V for 40 min, followed by blotting onto a nitrocellulose membrane at 0.8 mA/cm^2 for 2 h and blocking in either milk (Erk 1/2) or BSA (GAPDH) in TTBS (0.2% Tween (vol/vol), 150 mM NaCl, 20 mM Tris.HCl pH 7.4) for 1 h at room temperature. […]
Background: Immunoblotting shows a protein as a band on a membrane.

Assay [2] relates to Primary bovine lens epithelial cells. The experiment in a line: Primary bovine lens epithelial cells on the lens capsule, serum-free, continuous exposure: cell number and morphology. It counts as cell-based. On the procedure: Primary bovine lens epithelial cells were cultured in serum-free conditions, survival factors being released from the lens capsule. Paclitaxel or combretastatin A-4 phosphate was added to the culture to a final concentration of 10 nM, 100 nM or 10 μM. Cell number was determined for each capsule at 48 h and 96 h after addition of the test agent. Two capsules were taken per treatment and cell numbers averaged after being expressed as a percentage of 48 h value. This indicates the increase/decrease in cell number within a 48 h time period (i.e. from 48 h to 96 h), normalized as a percentage. Independent T-test P value between CA4P control and 10 μM is 0.0002.
By light microscopy, CA4P has a dramatic effect upon cell morphology, retaining the cobblestone characteristic of the lens epithelium, when in the control cultures the lens cells have begun to trans-differentiate actinsm/desmin positive cells and migrate off the capsule. Pictures were taken from live primary bovine cells on the lens capsule with FujiFinepix (FIG. 3).

[3] abbreviates: 30 min exposure to 1 mM CA4P immediately after wounding, serum-free, 48 h (data not shown).

As to `COc1ccc(/C=C\c2cc(OC)c(OC)c(OC)c2)cc1OP(=O)(O)O` [CA4P, combretastatin A-4 phosphate], in assay [1] (setting [3]), the cell multi-layering result is “does not prevent cell multi-layering” and the “cells moving away from the wound edge” value is reported as “prevents the cells from leaving the wound edge”. Moreover, in assay [1] (primary bovine lens epithelial cells grown on the lens capsule), the “hallmarks of EMT: loss of cell polarity and migratory behavior” value is “decreased”. For the same molecule, in the assay on BIE cells, the “number of BIE cells (viable cell number, MTT)” value is “steady reduction in the number of BIE cells”. The Erk phosphorylation result in the assay on ERK 1/2 (p42 and p44) was “not affected”. Besides, in assay [2] (10 nM, 100 nM or 10 μM, cell number at 48 h and 96 h, over a 96 hour exposure (FIG. 1, FIG. 2)), the “decline in cell number, compared with paclitaxel” value is on record as “more effective than paclitaxel at inducing a decline in cell number”. For the same molecule, in assay [2] (CA4P 10 μM, live primary bovine cells on the lens capsule, 48 and 96 h (FIG. 3)), the “cell morphology by light microscopy” value was “show only epithelial sheets with the typical cobblestone appearance of the lens epithelium”.
